Where two headings read alike, the source gives them in different places.
Target: T1, Olfr73 (Mus musculus, UniProt Q920P2)
T1 construct: expressed in transfected cells; host or cells: Hana3A cells (HEK293T-derived), co-transfected with pRTP1S and pCRE-SEAP
T1 sequence (Q920P2 1-313): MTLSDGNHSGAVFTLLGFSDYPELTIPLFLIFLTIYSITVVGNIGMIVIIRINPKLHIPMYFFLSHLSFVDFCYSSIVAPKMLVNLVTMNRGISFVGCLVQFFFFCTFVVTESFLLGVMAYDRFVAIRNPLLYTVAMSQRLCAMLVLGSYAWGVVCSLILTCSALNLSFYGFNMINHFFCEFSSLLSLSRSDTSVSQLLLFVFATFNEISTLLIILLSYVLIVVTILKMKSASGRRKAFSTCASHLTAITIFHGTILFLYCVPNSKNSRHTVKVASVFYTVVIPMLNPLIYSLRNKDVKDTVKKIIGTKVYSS
Experiment: SEAP reporter assay (cAMP signalling) of Olfr73 activation in Hana3A cells
Format: cell-based
Method: As described in detail elsewhere[16],[45],[47] HEK293T-derived Hana3A cells (provided by Prof. Matsunami, Duke University, USA) were grown in DMEM/F12 medium (Invitrogen, Netherlands) supplemented with 10% fetal calf serum (FCS) (Invitrogen, Netherlands), maintained under selective conditions with 1 μg/ml of puromycin (Sigma, Switzerland) and kept in the incubator at 37 °C and 5% CO2. Cells were transfected with plasmid DNA using Lipofectamine 2000 (Invitrogen, Netherlands).
The assays were performed as described in detail elsewhere[16],[45],[47] twenty hours before transfection Hana3A cells were seeded into 96 wells (Greiner, Germany) at a concentration of 3.5 × 10^6 cells per ml of medium. 75 ng of pRTP1S, 150 ng of the cAMP response element fused to the secreted alkaline phosphatase (pCRE-SEAP)[89] and either 75 ng of pOlfr73[47] or 75 ng of calf thymus DNA, used as a control, were co-transfected. Compounds to be tested (Sigma, Switzerland) were diluted in DMEM/F12 without FCS and added to the cells 7 h after transfection. Cells were incubated for 16 h at 37 °C in the incubator. For the SEAP reporter assay, the culture medium was mixed with an equal volume of 1 M diethanolamine-bicarbonate, pH 9.8, containing 20 mM para-nitrophenyl-phosphate (pNPP) (Sigma, Switzerland) and 1 mM MgCl2 (Sigma, Switzerland). Absorbance was measured at 410 nm using a multiwell absorbance plate reader (Molecular Devices, USA) at 1- to 4-min intervals for a period of 5 min to determine SEAP expression dependent pNPP hydrolysis rates (A410 /min). EC50 values were determined from dose-response curves fitting experimental data with the Hill equation using IGOR Pro software (WaveMetrics):
fx=f(max)/1+EC50/x^n f(x) is the background-corrected response signal at concentration x of the investigated ligand, f(max) the maximal, background-corrected amplitude of the response signal, EC50 the half maximal effective ligand concentration, and n the Hill coefficient. Experiments were performed in triplicate.

[1] = Fig. 4, newly found agonists A1-A17, read-out: EC50 (in brackets, Fig. 4)
[2] = Supplementary Table 2, cellular assays, triplicate, n.a. = no active response, read-out: EC50
[3] = EC50 (in brackets, Fig. 4), Fig. 4, newly found agonists A1-A17
[4] = EC50 (μM), Supplementary Table 2, cellular assays, triplicate, n.a. = no active response

Row | Compound | EC50 [2] [µM] | EC50 [4] [µM] | other results
1 | CC(C)Cc1ccc(O)cc1 [A1, p-isobutylphenol] | 12.9 ± 0.9 | – | EC50 [1]: 13 µM; agonist activity at Olfr73 (SEAP signal) (Hana3A cells, compounds predicted from virtual screening): most potent ligand
2 | CC(=O)c1cc(C)c(O)cc1C [A2, 2’,5’-dimethyl -4’hydroxyacetophenone] | 16 ± 1.5 | – | –
3 | Oc1ccc(C2CCCCC2)cc1 [A3, 4-cydohexyl-phenol] | – | 50.8 ± 0.5 | EC50 [3]: 51 µM
4 | COc1cc(C(C)(C)C)ccc1O [A4, 4-tert-butyl-2-methoxyphenol] | 55.6 ± 0.7 | – | EC50 [1]: 56 µM
5 | CCCc1ccc(O)c(OC)c1 [A5, dihydroeugenol] | – | 61 ± 6.9 | –
6 | CCCCCC1CCC(=O)CC1 [A6, 4-pentylcyclohexanone] | 63.1 ± 1.5 | – | EC50 [1]: 63 µM
7 | COc1cc2c(cc1OC)CCCC2 [A7, 6,7-dimethoxy-1,2,3,4-tetrahydronaphthalene] | 88.4 ± 1.3 | – | EC50 [1]: 88 µM
8 | CC/C=C/c1ccc(OC)c(OC)c1 [A8, (E)-4-(but-1-en-1-yl)-1,2-dimethoxybenzene] | – | 92.5 ± 0.9 | EC50 [3]: 93 µM
9 | C=CCc1cc(C(C)=O)ccc1O [A9, 1-(3-allyl-4-hydroxyphenyl)-ethanone] | – | 96.9 ± 1.7 | EC50 [3]: 97 µM
10 | COc1cc2ccccc2cc1OC [A10, 2,3-dimethoxynaphthalene] | 120 ± 1 | – | –
11 | C/C=C/c1ccc(OCC)c(OC)c1 [A11, isoeugenylethylether] | 193 ± 3 | – | –
12 | CC(=O)c1cc(C)c(O)c(C)c1 [A13, 4-hydroxy-3,5-dimethylacetophenone] | 250 ± 3 | – | –
13 | CCC(=O)c1ccc(O)cc1 [A15, 4-hydroxypropiophenone] | 502 ± 315 | – | –
14 | CCOC(=O)c1ccc(O)c(OC)c1 [A16, ethylvanillate] | – | 505 ± 109 | –
15 | CC(C)=C[C@H]1C[C@H](C)CCO1 [A17, (2R,4R)-4-methyl-2-(2-methylprop-1-en-1-yl)-tetrahydro-2H-pyran] | 627 ± 62 | – | –

— PMC6478719 (Communications Biology, 2019)
